Measured values as given in patent US20250262215A1, “USE OF CYCLIN E1 STATUS AS A PREDICTIVE BIOMARKER FOR TREATING CANCER WITH WEE1 INHIBITORS” (Zeno Management, Inc., priority 2022, published 2025).

Legend:
HGSOC cells = assay: Growth rate inhibition (GR) by CellTiter-Glo and GR calculator; type: cell-based; details: for effect on growth rate (GR): relative to untreated control
From the text: To confirm whether Cyclin E1 expression levels were responsible for increased sensitivity to Azenosertib, OV90, Kuramochi and COV362 cells (low endogenous expression levels of Cyclin E1) were transduced with a lentiviral vector carrying the CCNE1 gene or with an empty vector control. Stable OV90, Kuramochi and COV362 cell lines were established by puromycin selection. Cyclin E1 overexpression in the stable OV90 cell line compared to empty vector control cells was confirmed by Western blotting (FIG. 1C). […] Sensitization of HGSOC cell lines by overexpression of Cyclin E1 to Azenosertib was assessed by plotting the growth-rate (GR) inhibition in FIG. 1D. It was observed that Cyclin E1 overexpression sensitized HGSOC cell lines to Azenosertib by further decreasing growth rate and cell viability compared to control empty vector cell lines (FIG. 1D). GR50 and IC50 values of Azenosertib were determined by CellTiter-Glo (CTG) assay and the GR calculator.
HGSOC cells were assessed for growth rate inhibition (GR) in the presence of Azenosertib (relative to an untreated control). GR value is independent of cell division rate and was determined as described in Hafner et al. (Curr. Protoc. Chem. Biol. 9, 96-116 (2017)). HGSOC cells with high Cyclin E1 protein expression were amongst the most sensitive to Azenosertib. […] (FIG. 2). […] In Cyclin E1-low ovarian cancer cell lines, overexpression of Cyclin E1 by lentivirus increased sensitivity to Azenosertib.

[1] = system: SKOV3 cells (non-CCNE1-amplified, wild-type CCNE1 CN=2); assay: SKOV3 cell line-derived xenograft (CDX), tumor growth inhibition; type: in vivo, mice; details: 80 mg/kg Azenosertib daily
Experimental: Mice were inoculated with SKOV3 cells (non-CCNE1-amplified, wild-type CCNE1 CN=2) on the right flank with the single cell suspension of 95% viable tumor cells (1×10^7) in 100 μL McCoy's 5a and Matrigel mixture (1:1 ratio) without serum for the tumor development. Animals were randomized and treated with vehicle (20% HP-β-CD) or 80 mg/kg Azenosertib daily for 21 days when the mean tumor volume reached 215 mm^3. Tumor growth inhibition (TGI) was calculated using the following equation TGI=(1−(Td−T0)/(Cd−C0))×100%. Td and Cd are the mean tumor volumes of the treated and control animals, and T0 and C0 are the mean tumor volumes of the treated and control animals at the start of the experiment. […] (FIGS. 6A and 6B).

[2] = system: OVCAR8 (non=CCNE1-amplified) CDX; assay: OVCAR8 CDX model, tumor growth inhibition; type: in vivo, mice; details: 80 mg/kg Azenosertib daily for 39 days
[3] = system: HCC1806 human triple negative breast cancer cells (CCNE1-amplified, CN=7); assay: HCC1806 xenograft, tumor growth; type: in vivo, BALB/c nude mice; details: 80 mg/kg Azenosertib daily; after 28 days
Experimental: 1×10^6 HCC1806 human triple negative breast cancer cells (CCNE1-amplified, CN=7) were inoculated into the right flank of ten 6-8-week-old female BALB/c nude mice. Animals were randomized and treatment started when the mean tumor volume reached 155 mm^3. Animals were treated with vehicle (20% HP-β-CD) or 80 mg/kg Azenosertib daily and tumor volumes and body weight were measured twice weekly.

[4] = system: OVCAR-3 cells (CCNE1-amplified, CN=14); assay: OVCAR-3 xenograft, tumor growth inhibition; type: in vivo, NOD/SCID mice; details: 80 mg/kg Azenosertib daily; after 28 days
Experimental: 6-8 weeks old female NOD/SCID mice were inoculated with OVCAR-3 cells (CCNE1-amplified, CN=14) into the right flank. Animals were randomized and treated with […] (20% HP-β-CD) or 80 mg/kg Azenosertib daily once the mean tumor volume reached 111 mm^3. Tumor volumes and body weight were measured twice weekly. […] Reduction in tumor growth was also observed in animals treated with 40 mg/kg Azenosertib daily, 60 mg/kg Azenosertib daily, 80 mg/kg Azenosertib daily. (FIGS. 8C and 8D).

[5] = system: A2780 non-CCNE1-amplified (CN = 2) (Cyclin E1-low); assay: Azenosertib and paclitaxel combination study, A2780 tumors; type: in vivo, mice; details: Azenosertib 60 mg/kg QD and/or paclitaxel 10 mg/kg, schedules of Table 2
From the text: (§1) To evaluate the effects of Azenosertib in combination with paclitaxel, mice were inoculated with A 2780 (non-CCNE1-amplified, CN=2) (FIGS. 10A and 10B) or OVCAR3 (CCNE1 amplified, CN=14) (FIG. 11A and FIG. 11B) cells. Animals were randomized and treated as summarized in Table 2 once the mean tumor volume reached a specified size.

[6] = system: OVCAR3 CCNE1-amplified (CN = 14) (Cyclin E1-high); assay: Azenosertib and paclitaxel combination study, OVCAR3 tumors; type: in vivo, mice; details: Azenosertib 60 mg/kg QD × 28 and/or paclitaxel 5 mg/kg 4 days on, 3 days off × 4 cycles
From the text: as §1

[7] = system: CCNE1-amplified platinum-resistant ovarian cancer; assay: Azenosertib in one heavily pre-treated subject (Example 10); type: in vivo, human; details: at least 400 mg once a day, 5 days on, two off days, for 11 months
Experimental: The subject was selected to have CCNE1-amplified status (confirmed by Foundation assay) and was administered Azenosertib in accordance with an intermittent dosing schedule of at least 400 mg Azenosertib once a day for five consecutive days, followed by two off days for 11 months. The subject is a person who received 10 prior lines of therapy: (1) Avelumab (SD); (2) Doxorubicin Liposomal (PD); (3) Topotecan/bevacizumab (PD); (4) Cyclophosphamide/bevacizumab (unk); (5) XMT1536 (NaPi2b ADC) (PR); (6) APG115 (MDM2 inh)/Pembrolizumab (SD); (7) ABBV-155 ([…] ADC) (PD); (8) NC 318 (Siglec-15 mA B) (SD); (9) SM 08502 (CLK inhibitor) (PD); (10) NBMBMX (HDAC8 inh) (SD).

[8] = system: SKOV3, OVCAR3 and HCC1806 tumors; assay: Tolerability in tumor-bearing mice dosed orally every day (Example 3); type: in vivo, NOD/SCID mice or BALB/c nude mice
Experimental: NOD/SCID mice (SKOV3-Cyclin E1-low and OVCAR3-Cyclin E1-high) or BALB/c nude mice (HCC1806) bearing corresponding tumors were dosed orally every day for the time as shown in FIGS. 5A and 8A. Treatment was well-tolerated and the change in tumor volume was plotted against time of administration. Target engagement of Azenosertib (decreased pCDK1) and γH2AX were examined by IHC in tumors after 12 hrs of Azenosertib treatment in SKOV3-Cyclin E1-low and OVCAR3-Cyclin E1-high cells. Y-axis represents the sum of H-score evaluated by 3 independent pathologists (FIGS. 4B and 4C). Replication stress markers pCHK1 and γH2AX were determined by Western Blot in OVCAR3 tumor samples with or without Azenosertib treatment for 12 hrs (FIG. 4D).

[9] = system: CCNE1-amplified platinum-resistant ovarian cancer; set-up: key: CR: complete response; PR: partial response; SD: stable disease; PD: progressive disease; NE: not evaluable; NA: not available; details: one subject, before Azenosertib; cited from earlier work

C=CCn1c(=O)c2cnc(Nc3ccc(N4CCN(C)CC4)cc3)nc2n1-c1ccc2c(n1)[C@@](O)(CC)CC2 [Azenosertib]
effect on growth rate (GR) (HGSOC cells; COV362, JHOMI, OAW28, OVCAR3, CAOV3, and OVCAR4 cells): cytotoxic effect | effect on growth rate (GR) (HGSOC cells; ES2 and TYK-nu cells): cytotoxic effect | effect on growth rate (GR) (HGSOC cells; OV90 and Kuramochi cells): inhibitory effect | GRmax (HGSOC cells; ovarian cancer cell lines overexpressing Cyclin E1 protein (Cyclin E1-high)): < −0.5 | average tumor growth inhibition TGI(80 mpk, Day 28) [1]: 51.5% | average tumor growth inhibition TGI(80 mpk, Day 28) [2]: 52.8% | reduced tumor growth vs vehicle [3]: 63.5% | reduced tumor growth TGI(80 mpk, Day 28) [4]: 88% | Tumor Growth Inhibition [5]: 34% | Tumor Growth Inhibition [6]: 68% | durable cPR [7]: −71% | tolerability of treatment [8]: well-tolerated

CC(=O)O[C@H]1C(=O)[C@@]2(C)[C@H]([C@H](OC(=O)c3ccccc3)[C@]3(O)C[C@H](OC(=O)[C@H](O)[C@@H](NC(=O)c4ccccc4)c4ccccc4)C(C)=C1C3(C)C)[C@]1(OC(C)=O)CO[C@@H]1C[C@@H]2O [Paclitaxel, paclitaxel, reference compound]
Tumor Growth Inhibition [5]: 46% | Tumor Growth Inhibition [6]: 74%

CN1CCN(c2cc(C(=O)Nc3cc4cc(-c5cnn(C)c5)ccc4cn3)ccn2)CC1 [SM 08502, reference compound]
response to prior line of therapy [9]: PD

Avelumab: prior line of therapy of the subject [reference compound]
response to prior line of therapy [9]: SD

B1: XMT1536 (conjugate, chains of the INN, looked up)
VH: QVQLVQSGAEVVKPGASVKMSCKASGYTFTGYNIHWVKQAPGQGLEWIGAIYPGNGDTSYKQKFRGRATLTADTSTSTVYMELSSLRSEDSAVYYCARGETARATFAYWGQGTLVTVSS
VL: DIQMTQSPSSLSASVGDRVTITCSASQDIGNFLNWYQQKPGKTVKVLIYYTSSLYSGVPSRFSGSGSGTDYTLTISSLQPEDFATYYCQQYSKLPLTFGQGTKLELK
modifications: rilsodotin (auristatin) payload
response to prior line of therapy [9]: PR

B2: ABBV-155 (conjugate, chains of the INN, looked up)
VH: EVQLQESGPGLVKPSETLSLTCAVTGYSITSGYSWHWIRQFPGNGLEWMGYIHSSGSTNYNPSLKSRISISRDTSKNQFFLKLSSVTAADTAVYYCAGYDDYFEYWGQGTTVTVSS
VL: DIQMTQSPSSLSASVGDRVTITCKASQNVGFNVAWYQQKPGKSPKALIYSASYRYSGVPSRFSGSGSGTDFTLTISSLQPEDFAEYFCQQYNWYPFTFGQGTKLEIK
modifications: clezutoclax payload
response to prior line of therapy [9]: PD
